Results reported in US8742121B2, “Process for the preparation of small molecule inhibitors of MDM2 and intermediates used therein” (The Regents of the University of Michigan, priority 2005, dated 2014).
Like-named read-outs stand apart in the source and are kept apart here. Values belong to the compound of their own block, whether it stands above or below them.

Legend:
[1] = system: HT-29 (mutant p53) colon cancer cells; assay: Cell cycle progression (BrdU/7-AAD flow cytometry), HT-29; type: cell-based; details: HT-29, 22 + 2 hours, FIG. 14
Method: (§1) Cell cycle progression was evaluated in RKO (wild-type p53) and HT-29 (mutant p53) colon cancer cell lines and CCD-18Co normal colon fibroblast cells by determining S-phase cells by incorporation of bromodeoxyuridine (BrdU) followed by staining with FITC-labeled anti-BrdU antibody and the total DNA-content by staining with 7-aminoactinomycin D (7-AAD) according to manufacturer's instructions (BD Biosciences, San Jose, Calif.). Briefly, cancer and normal cells, after overnight incubation, were treated with out test compounds for 22 hours, followed by an additional 2 hours of incubation with 10 μM of BrdU. Cells were harvested, fixed and stained with FITC-labeled anti-BrdU and 7-AAD. Cell cycle distribution was analyzed by flow cytometry. Cells were acquired and data analyzed by using CellQuest software (BD Biosciences).

[2] = system: CCD-18Co normal colon fibroblast cells; assay: Cell cycle progression (BrdU/7-AAD flow cytometry), CCD-18Co; type: cell-based; details: 22 + 2 hours, FIG. 14
Method: as §1

[3] = system: RKO (wild-type p53) colon cancer cells; assay: Cell cycle progression (BrdU/7-AAD flow cytometry), RKO; type: cell-based; details: 22 + 2 hours, FIG. 14
Method: as §1

[4] = system: LNCaP prostate cancer cells (p53 wild-type); assay: WST-8 cell growth inhibition assay, LNCaP; type: cell-based; details: Homo sapiens, 96 h
[5] = molecular target: T1, recombinant human MDM2 protein (residues 1-118, His-tag) (Homo sapiens, UniProt Q00987); assay: Fluorescence polarization (FP)-based competitive binding assay with PMDM6-F probe; details: for Ki: competition with PMDM6-F, FIG. 4B/5
T1 construct: The recombinant MDM2 human protein (residues 1-118) fused to His-tag at the N terminus; His-tag (N)

p53-MDM2 interaction = molecular target: T2, p53-MDM2 interaction (Homo sapiens, UniProt Q00987); assay: Co-immunoprecipitation/Western blotting of p53-MDM2 interaction in HCT116 lysates; type: biochemical; details: increasing concentrations, 1 h at 4° C., FIG. 10
T2 construct: endogenous in cells; host or cells: HCT116 colon cancer cells (lysate)
Method: Co-immunoprecipitation (Co-IP)/Western blotting assays were performed to assess the effects of Ke-43 on p53-MDM2 interaction. After harvesting and washing once with cold PBS, HCT116 colon cancer cells were lysed by sonication in cold Co-IP buffer (50 mM Tris (pH 7.5), 150 mM NaCl, 1 mM EDTA (pH 8.0), 0.5% NP-40) containing 1 mM phenylmethylsulfonyl fluoride and protease inhibitor cocktail. Sonicated lysates were then centrifuged at 12,000×g at 4° C. for 15 minutes. Supernatant containing 2 mg protein was incubated in the absence or presence of Ke-43 for 1 h at 4° C., followed by addition agarose beads, conjugated either with anti-p53 antibody (FL-393, Santa Cruz) or with a non-specific antibody. After mixing for 2 h at 4° C., the agarose beads were washed 3 times with cold Co-IP buffer, boiled in sample buffer followed by SDS-PAGE and the presence of p53 and MDM2 was detected by Western blotting with mouse monoclonal antibodies against p53 and MDM-2 proteins.

[6] = system: RKO (wild-type p53) colon cancer cells; assay: Cell death (trypan blue) and apoptosis (sub-diploid DNA, PI staining); type: cell-based; details: 4 days; RKO compared with HT-29 and CCD-18Co, FIG. 13
Method: RKO (wild-type p53) and HT-29 (mutant p53) colon cancer cell lines and CCD-18Co normal colon fibroblast cells were treated with increasing doses of Ke-43 or Ke-61 for 4 days in 6-well Petri dishes. Trypan blue dye exclusion assays were performed to determine the ability of the inhibitors to induce cell death. After 4 days of treatment, floating and adherent cells were harvested and stained with 0.2% of trypan blue solution (Sigma, St Louis, Mo.). Each treatment was performed in triplicate and at least 100 cells were counted. Cells stained blue or morphologically unhealthy cells were scored as dead cells. To evaluate apoptosis, sub-diploid DNA content in cells treated with or without test inhibitors was analyzed by propidium iodide (PI) staining After washing once with cold PBS, cells were fixed in 70% ethanol for 1 day at −20° C. Ethanol-fixed cells were then washed twice with PBS and stained with a staining solution containing propidium iodide (PI) at 50 ng/ml and RNAse A at 100 ng/ml in PBS, for 20 minutes in dark at room temperature. Acquisition of cells and analysis of sub-diploid DNA content was performed by flow cytometry using CellQuest software.

[7] = system: RKO (wild-type p53) colon cancer cells; assay: WST-8 cell growth inhibition assay, RKO; type: cell-based
[8] = system: HCT116 (wild-type p53) colon cancer cells; assay: WST-8 cell growth inhibition assay, HCT116; type: cell-based
[9] = system: p53, MDM2 and p21 expression in RKO (wild-type p53) cells; assay: Western blot of p53 and its target gene products MDM2 and p21; type: cell-based; details: 24 hours; RKO compared with HT-29 (mutant p53), FIG. 12
Method: Cancer cells were treated with test compounds or 0.1% DMSO for 24 hours. Cells were harvested by trypsinization and washed with cold phosphate buffer saline, pH 7.5 (Invitrogen, Carlsbad, Calif.). Cells were lysed for 30 minutes in ice-cold lysis buffer (50 mM Tris (pH 7.5), 150 mM NaCl, 1 mM EDTA (pH 8.0), 25 mM sodium fluoride, 1% NP-40 and 0.1% SDS) containing 2 mM sodium orthovanadate, 1 mM phenylmethylsulfonyl fluoride and protease inhibitor cocktail (Roche Applied Science, Indianapolis, Ind.). Next, cell extracts were centrifuged at 12,000×g at 4° C. for 10 minutes to obtain clarified lysates. Protein was estimated by Bio-Rad dye. Cell lysates containing […] protein were resolved on a 4-20% tris-glycine gel (Invitrogen, Carlsbad, Calif.) and transferred onto poly(vinylidene difluoride) membranes. Immunodetection of proteins on the transfer membrane was performed by using anti-p53 (Ab-6, Oncogene Research Products, Boston, Mass.), anti-MDM2 (SMP14, Santa Cruz Biotechnology, Santa Cruz, Calif.) and anti-p21 (BD Biosciences, San Diego, Calif.) mouse monoclonal antibodies. Antibody to β-actin (Sigma, St Louis, Mo.) was used to assess the protein loading.

[10] = system: normal human prostate epithelial cells (PrEC) with wild-type p53; assay: WST-8 cell growth inhibition assay, PrEC; type: cell-based
[11] = system: PC-3 prostate cancer cells (p53 null); assay: WST-8 cell growth inhibition assay, PC-3
[12] = system: PrEC normal prostate epithelial cells; assay: Protection of normal cells from TAXOL (trypan blue viability); type: cell-based, human; details: pretreatment 1 μM and 2.5 μM for 24 hours, then 1 μM TAXOL for 2 days, FIG. 15
Method: PrEC normal prostate epithelial cells were seeded in 6 well pates and incubated with Ke-63 (1 μM and 2.5 μM) for 24 hours, then 1 μM TAXOL (paclitaxel) was added for 2 days. Trypan blue was used to determine cell viability.

[13] = 4 days, FIG. 6, read-out: IC50 inhibition of cell growth

Structure (SMILES): COc1ccc2c(c1)NC(=O)[C@]21[C@@H](CC(C)(C)C)N[C@@H](C(=O)N(C)C)[C@@H]1c1cccc(Br)c1 [Ke-61, (2′R,3S,4′R,5′R) 4′-(3-Bromo-Phenyl)-2′-(2,2-Dimethyl-Propyl)-6-Methoxy-2-Oxo-1,2-Dihydro-Spiro[Indole-3,3′-Pyrrolidine]-5′-Carboxylic Acid Dimethylamide]
cell cycle progression [1]: did not have a significant effect
S-phase / cell cycle progression [2]: did not have a significant effect
S-phase / cell cycle progression [3]: did not have a significant effect

Structure (SMILES): CC(C)(C)C[C@H]1N[C@@H](C(=O)NCCN2CCOCC2)[C@H](c2cccc(Br)c2)[C@@]12C(=O)Nc1cc(Cl)ccc12 [Ke-43, (2′R,3S,4′R,5′R) 6-Chloro-4′-(3-Bromo-Phenyl)-2′-(2,2-Dimethyl-Propyl)-2-Oxo-1,2-Dihydro-Spiro[Indole-3,3′-Pyrrolidine]-5′-Carboxylic Acid (2-Morpholin-4-yl-Ethyl)-Amide]
immunoprecipitation of MDM2 by anti-p53 antibody (p53-MDM2 interaction): disrupts the interaction between p53 and MDM2
cell cycle progression [1]: no appreciable effect on cell cycle progression
apoptosis [6]: Only cancer cells expressing wild-type p53 underwent apoptosis
S-phase / cell cycle progression [2]: dose-dependent depletion of S-phase
Ki values (in words) ([5]; Example 132, FIG. 9, more potent than the natural p53 peptide): low nM to sub-nM range
S-phase / cell cycle progression [3]: dose-dependent depletion of S-phase
specificity over cancer cells expressing mutant p53 (HT-29) ([7]; RKO versus HT-29): greater than 13 fold
growth inhibitory activity ([7]; RKO, 4 days, FIG. 11): potent growth inhibitory activity
growth inhibitory activity ([8]; HCT116, 4 days, FIG. 11): potent growth inhibitory activity
specificity over cancer cells expressing mutant p53 (HT-29) ([8]; HCT116 versus HT-29): greater than 18 fold
accumulation of p53 and its target gene-products [9]: induced accumulation of p53 and its target gene-products only in RKO cells expressing wild-type p53

Structure (SMILES): CN(C)C(=O)[C@@H]1N[C@H](CC(C)(C)C)[C@]2(C(=O)Nc3cc(Cl)ccc32)[C@H]1c1cccc(Cl)c1 [Example 1d, (2′R,3S,4′R,5′R) 6-Chloro-4′-(3-Chloro-Phenyl)-2-Oxo-2′-(2,2-Dimethylpropyl)-1,2-Dihydro-Spiro[Indole-3,3′-Pyrrolidine]-5′-Carboxylic Acid Dimethylamide]
IC50 ([4]; read-out: IC50 inhibition of cell growth): 830 nM
IC50 ([10]; Homo sapiens, 96 h, PrEC, 4 days, FIG. 8): 6 µM
times less potent in PrEC cells than in LNCaP cells ([10]; PrEC versus LNCaP): 13 times
IC50 ([11]; Homo sapiens, 96 h, read-out: IC50 inhibition of cell growth): 22.5 µM
times less active in PC-3 cells than in LNCaP cells ([11]; PC-3 versus LNCaP): 27 times

Structure (SMILES): CC(C)(C)C[C@H]1N[C@@H](C(=O)NCCN2CCOCC2)[C@H](c2cccc(Cl)c2F)[C@@]12C(=O)Nc1cc(Cl)ccc12 [Ke-63, (2′R,3S,4S,5′R) 6-Chloro-4′-(3-Chloro-2-Fluoro-Phenyl)-2′-(2,2-Dimethyl-Propyl)-2-Oxo-1,2-Dihydro-Spiro[Indole-3,3′-Pyrrolidine]-5′-Carboxylic Acid (2-Morpholin-4-yl-Ethyl)-Amide]
protection of cells from TAXOL (cell viability) [12]: cells were protected from TAXOL

Continued, values first:

IC50 [4, 13]: 1900 nM
Ki [5]: 390 nM
Structure (SMILES): CC(C)CC[C@H]1N[C@@H](C(=O)N(C)C)[C@H](c2cccc(Cl)c2)[C@@]12C(=O)Nc1cc(Cl)ccc12 [Example 1f, (2′R,3S,4′R,5′R) 6-Chloro-4′-(3-Chloro-Phenyl)-2′-(3-Methyl-Butyl)-2-Oxo-1,2-Dihydro-Spiro[Indole-3,3′-Pyrrolidine]-5′-Carboxylic Acid Dimethylamide]

Ki [5]: 7700 nM
times less potent than 1b (Ki) ([5]; relative to 1b): 26 times
Structure (SMILES): CC(C)C[C@H]1N[C@@H](C(=O)N(C)C)[C@H](c2ccc(Cl)cc2)[C@@]12C(=O)Nc1cc(Cl)ccc12 [Example 1c, (2′R,3S,4′R,5′R) 6-Chloro-4′-(4-Chloro-Phenyl)-2′-Isobutyl-2-Oxo-1,2-Dihydro-Spiro[Indole-3,3′-Pyrrolidine]-5′-Carboxylic Acid Dimethylamide]

IC50 [4, 13]: 2700 nM
Ki [5]: 650 nM
Structure (SMILES): CCC[C@H]1N[C@@H](C(=O)N(C)C)[C@H](c2cccc(Cl)c2)[C@@]12C(=O)Nc1cc(Cl)ccc12 [Example 1e, (2′R,3S,4′R,5′R) 6-Chloro-4′-(3-Chloro-Phenyl)-2-Oxo-2′-Propyl-1,2-Dihydro-Spiro[Indole-3,3′-Pyrrolidine]-5′-Carboxylic Acid Dimethylamide]

IC50 [4, 13]: 2100 nM
Ki [5]: 300 nM
times more potent than 1a (Ki) ([5]; relative to 1a): 28 times
Structure (SMILES): CC(C)C[C@H]1N[C@@H](C(=O)N(C)C)[C@H](c2cccc(Cl)c2)[C@@]12C(=O)Nc1cc(Cl)ccc12 [Example 1b, (2′R,3S,4′R,5′R) 6-Chloro-4′-(3-Chloro-Phenyl)-2′-Isobutyl-2-Oxo-1,2-Dihydro-Spiro[Indole-3,3′-Pyrrolidine]-5′-Carboxylic Acid Dimethylamide]
